Assay results reported in US11426389B2, “Compositions and methods for promoting hematopoietic stem cell regeneration” (priority 2017, dated 2022).

Columns and labels:
[1] = test system: ShCamkk2 M1 cells; type: cell-based
Procedure: FIG. 6A-6F. CaMKK2 couples radiation signaling with the AMPK anti-proliferative pathway. HSPC (KL+KSL) were isolated from WT and Camkk2 null (KO) mice and irradiated in vitro with 400 cGy or left non-irradiated. Cells were then cultured for 1-h in regular medium. Protein expression was normalized by actin and expressed as fold change over basal (non-irradiated WT HSPC), and is reported on the top of each lane. (A) Immunoblots of CaMKK2, phospho-CaMK1 (pCaMK1) and actin. (B) Immunoblots of Tp53, phosphorylated AMPK and S6rp (pAMPK and pS6rp, respectively). (C-E) M1 myeloid progenitor cells were transduced with lentiviral vectors expressing a short hairpin sequence for silencing Camkk2 or a control sequence (ShCamkk2 and Ctrl, respectively). Ctrl and ShCamkk2 M1 cells were then irradiated or left non-irradiated. One-hour after irradiation, M1 cell protein expression was assessed by immunoblotting. (C) Expression of CaMKK2 and actin. […] Cell number was determined using a colorimetric assay, and the results are expressed as fold change of non-irradiated cells cultured in the absence of AICAR. […]
To determine the functional effects of Camkk2 deficiency in M1 cells, control and ShCamkk2 M1 cells were exposed to 300 cGy with or without a cell permeable AMPK agonist and the number of live M1 cells were determined 24 h after irradiation.

[2] = test system: 900 cGy TBI wild-type mice; test: Survival of lethally irradiated (900 cGy TBI, LD100/15) wild-type mice treated with STO-609; type: in vivo; details: 10 μM/kg on days 1, 2 and 3 post-TBI, intravenous, vs vehicle, n=10 per group
Procedure: (§1) FIGS. 7A-7D. Pharmacologic inhibition of CaMKK2 enhances hematopoietic regeneration in vivo. Treatment with STO-609, a CaMKK2 inhibitor, mitigates the acute hematopoietic radiation syndrome. (A) Scheme of irradiation and STO-609 treatment in wild type mice. (B) Survival of 900 cGy TBI wild-type mice treated with vehicle or STO-609 (n=10 per group). Wild-type mice were irradiated with 500 cGy TBI and were then treated with STO-609 or vehicle after 24 h. Nine days after TBI, the mice were killed and bones were removed. The BM cells were counted and stained to identify HSPC (BMC). (C) Representative staining and gating strategy. (D) Absolute number of BMC and HSPC (upper and lower graph, respectively). The results are expressed as the fold changes over the absolute number of cells recovered form vehicle-treated wild type mice, and are normalized for one femur. Two independent experiments have been combined (total number of mice-9 per group). Bars graph reports mean±S.E.M. *P-value<0.05, **P-value<0.01/
(§2) CaMKK2-EGFP transgenic reporter mice were used. Radiation was delivered by a Shepherd Cs^137γ-irradiator at a dose rate of approximately 600 cGy per min. […]
(§3) It was hypothesized that pharmacologic inhibition of CaMKK2 increases survival and HSPC recovery following TBI. […] Next, the effects of STO-609 treatment on HSPC of mice receiving 500 cGy TBI were evaluated. […]

[3] = test system: HSPC; test: Bone marrow cell and HSPC recovery in 500 cGy TBI wild-type mice treated with STO-609; type: in vivo; details: 9 days after TBI, vs vehicle-treated mice
Procedure: as §1, §2, §3

SMILES | cell death ([1]; M1 cells, following radiation or AICAR treatment (data not shown)) | number of live M1 cells (proliferation) after irradiation ([1]; ShCamkk2 M1 cells, 300 cGy, 24 h, AICAR 100 μM) | survival following TBI [2] | HSPC in the BM [3] | total BM cells in the BM [3]
NC(=O)c1ncn([C@@H]2O[C@H](CO)[C@@H](O)[C@H]2O)c1N [AICAR, 5-aminoimidazole-4-carboxamide 1-β-d-ribofuranoside] | no increase in cell death | reverted the refractory phenotype of ShCamkk2 M1 cells |  |  | 
O=C(O)c1ccc2c3c1cccc3c(=O)n1c3ccccc3nc21 [STO-609, 7H-benzimidazo(2,1-a)benz(de)isoquinoline-7-one-3-carboxylic acid] |  |  | significantly prolonged survival | More | More total BM cells
